Key:
Assay type in all cases: physicochemical
[1] = Transient absorption (fsTA/nsTA) and time-resolved fluorescence spectroscopy; details: in MeCN; for non-radiative decay rate constant kNR: kNR = kobs(1 − ΦF); for radiative decay rate constant kR: kR = kobsΦF
Source text: The excited-state properties of these quadrupolar dyes were investigated using transient absorption (TA) spectroscopy. The TA data of dyes 1-4 and 6 in MeCN with lex=350 nm (FIGS. 9-12 and 15) show similar spectra with the same general electronic evolution, though with differing kinetics. Following excitation, strong excited-state absorption features appear between ˜450-500 nm along with a strong single peak in the near-infrared region, both of which are associated with Sn←S1 absorptions. The visible bands redshift over the following ˜100 ps, while the near-infrared band peaks first blueshift in the initial ˜10 ps before settling. These near-infrared absorption bands are similar to those observed^59,60 in extended bipyridinium compounds. Following these shifts, the excited states decay via emission with lifetimes between 3-4 ns as confirmed by time-resolved fluorescence (TRF) spectroscopy. The spectral shape of the transient species is generally maintained throughout their lifetimes, implying that the dynamics in each dye all occur on a single electronic excited state (S1) prior to emission. The spectral shifts at early times may arise due to excited-state symmetry breaking^77-78 in the quadrupolar dyes, wherein fluctuations in the instantaneous electrostatic environment afforded by the solvent transiently favor wavefunction localization on one side of the symmetric molecule, creating an excited state with a large dipole moment that is associated with the Stokes shift observed^79 in the fluorescence spectra. This localization can lead to changes in the transient absorption spectra as a result of the breakdown^42,80 of the Laporte rule. The shifts at longer times may arise from solvent or structural relaxation of the dyes.
Steady-state and time-resolved emission spectra for dyes 1-6, 7·2PF6 and 9·4PF6 were acquired using a HORIBA Fluorolog-3 spectrofluorometer, equipped with a time-correlated single photon counting (TCSPC) module (diode laser excitation at λ=375 nm) and an integrating sphere, which was used for absolute photo-luminescence quantum yield determinations. Picosecond time-resolved fluorescence measurements were recorded using a commercial direct-diode-pumped 100 kHz amplifier (Spirit 1040-HE, Spectra-Physics), producing a fundamental beam of 1040 nm (350 fs, 12 W) which was used to pump a non-collinear optical parametric amplifier (Spirit-NOPA, SpectraPhysics) capable of delivering tunable, high-repetition-rate pulses with pulse widths as short as sub-20 fs. Dyes 1-6, 7·2PF6 and 9·4PF6 were excited with 350 nm, 2 nJ laser pulses. Fluorescence was detected using a Hamamatsu C4780 Streakscope as previously described in the literature. Samples were prepared in 2-mm quartz cuvettes. All data were acquired in the single-photon-counting mode using the Hamamatsu HPD-TA software. The temporal resolution was approximately 2% of the sweep window. Single wavelength kinetic analysis was performed using a nonlinear least-squares fit to a sum of exponentials convoluted with an instrument response function. Visible and near-infrared femtosecond and nanosecond transient absorption (fsTA and nsTA, respectively) spectroscopies were performed following descriptions already recorded in the literature. The 330 nm, ˜100 fs pump pulses were generated at 1 μJ per pulse using a commercial collinear optical parametric amplifier (TOPAS-Prime, Light-Conversion, Ltd.); 414-nm pump pulses were obtained by second-harmonic generation of the 828 nm fundamental. The pump polarization was randomized using a commercial depolarizer (DPU-25-A, Thorlabs, Inc.) to eliminate any orientational dynamics resulting from the experiment. Spectra were collected on commercial spectrometers (customized Ultrafast Systems Helios and EOS spectrometers, for fsTA and nsTA, respectively) for each time window. All samples were stirred to avoid localized heating or degradation effects. The optical density was maintained at 0.6 for all samples. […]

[2] = Absolute fluorescence quantum yield (integrating sphere); details: 414 nm excitation
[3] = as above; details: in MeCN
Experimental: (§1) Fluorescent dyes were dissolved in the appropriate solvents to afford 1 mM solutions prior to spectroscopic analysis. A portion of 30 μL of a 1 mM solution was diluted by adding a selected solvent to a sample with a total volume of 3000 μL, affording a 1×10^−5 M solution. UV/Vis Absorption spectra were recorded in glass cuvettes on a UV-3600 Shimadzu spectrophotometer. Steady-state emission spectra were acquired in quartz cuvettes with optical path-lengths of 10 mm containing the solution being analyzed using a HORIBA Fluoromax4 spectrofluorometer, which was equipped with an integrating sphere for determining the absolute photoluminescence quantum yield.
Steady-state and time-resolved emission spectra for dyes 1-6, 7·2PF6 and 9·4PF6 were acquired using a HORIBA Fluorolog-3 spectrofluorometer, equipped with a time-correlated single photon counting (TCSPC) module (diode laser excitation at λ=375 nm) and an integrating sphere, which was used for absolute photo-luminescence quantum yield determinations. Picosecond time-resolved fluorescence measurements were recorded using a commercial direct-diode-pumped 100 kHz amplifier (Spirit 1040-HE, Spectra-Physics), producing a fundamental beam of 1040 nm (350 fs, 12 W) which was used to pump a non-collinear optical parametric amplifier (Spirit-NOPA, SpectraPhysics) capable of delivering tunable, high-repetition-rate pulses with pulse widths as short as sub-20 fs. Dyes 1-6, 7·2PF6 and 9·4PF6 were excited with 350 nm, 2 nJ laser pulses. Fluorescence was detected using a Hamamatsu C4780 Streakscope as previously described in the literature. Samples were prepared in 2-mm quartz cuvettes. All data were acquired in the single-photon-counting mode using the Hamamatsu HPD-TA software. The temporal resolution was approximately 2% of the sweep window. Single wavelength kinetic analysis was performed using a nonlinear least-squares fit to a sum of exponentials convoluted with an instrument response function. Visible and near-infrared femtosecond and nanosecond transient absorption (fsTA and nsTA, respectively) spectroscopies were performed following descriptions already recorded in the literature. The 330 nm, ˜100 fs pump pulses were generated at 1 μJ per pulse using a commercial collinear optical parametric amplifier (TOPAS-Prime, Light-Conversion, Ltd.); 414-nm pump pulses were obtained by second-harmonic generation of the 828 nm fundamental. The pump polarization was randomized using a commercial depolarizer (DPU-25-A, Thorlabs, Inc.) to eliminate any orientational dynamics resulting from the experiment. Spectra were collected on commercial spectrometers (customized Ultrafast Systems Helios and EOS spectrometers, for fsTA and nsTA, respectively) for each time window. All samples were stirred to avoid localized heating or degradation effects. The optical density was maintained at 0.6 for all samples.
Steady-state and time-resolved emission spectra for dyes 7·2PF6 and 9·4PF6 were acquired using a HORIBA Fluorolog-3 spectrofluorometer, equipped with a time-correlated single photon counting (TCSPC) module (diode laser excitation at =375 nm) and an integrating sphere, which was used for absolute photo-luminescence quantum yield determinations. Picosecond time-resolved fluorescence measurements were recorded using a commercial direct-diode-pumped 100 kHz amplifier (Spirit 1040-HE, Spectra-Physics), producing a fundamental beam of 1040 nm (350 fs, 12 W) which was used to pump a non-collinear optical parametric amplifier (Spirit-NOPA, SpectraPhysics) capable of delivering tunable, high-repetition-rate pulses with pulse widths as short as sub-20 fs. The samples 7·2PF6 and 9·4PF6 were excited with […], 2 nJ laser pulses. Fluorescence was detected using a Hamamatsu C4780 Streakscope as previously described in the literature.^71 Samples were prepared in 2-mm quartz cuvettes. All data were acquired in the single-photon-counting mode using the Hamamatsu HPD-TA software. […]

Solubility (qualitative) = details: PF6− salt; e.g. MeCN, Me2CO, DMF
[4] = Steady-state UV/Vis absorption and fluorescence emission spectra; details: THF, 10 μM
Experimental: Fluorescent dyes 1-6, 7·2PF6, 8·2PF6, 9·4PF6 and 9·4Cl were dissolved in THF (1-5), MeCN (6, 7·2PF6, 8·2PF6 and 9.4PF6) and H2O (9.4Cl), respectively, to afford 10 μM solutions prior to spectroscopic analysis. For comparison, their normalized (i) UV/Vis absorption (FIG. 2) and (ii) the fluorescence emission (FIG. 3) spectra of quadrupolar dyes are overlayed, displaying a large range of S1 absorbance and emission maxima, which rely highly on their quadrupolarity that is correlated to the electron-deficiency of the ARs.
as §1

[5] = Transient absorption (fsTA/nsTA) and time-resolved fluorescence spectroscopy; details: in PhMe

## COc1cc2c(OC)cc1-c1cc[n+](cc1)Cc1ccc(cc1)C[n+]1ccc(cc1)-c1cc(OC)c(cc1OC)-c1cc[n+](cc1)Cc1ccc(cc1)C[n+]1ccc-2cc1 [9·4PF6]
[1]
  excited-state (emissive) lifetime: 3.45±0.01 ns
  rate constant k1 from TA data: (1.4 ± 0.3 ps)^−1 (ps)^−1
  rate constant k2 from TA data: (188 ± 4 ps)^−1 (ps)^−1
  rate constant k3 from TA data: (3.45 ± 0.01 ns)^−1 (ns)^−1
  rate constant k4 from TA data: (450 ± 70 ns)^−1 (ns)^−1
  non-radiative decay rate constant kNR: (4.79 ± 0.03 ns)^−1 (ns)^−1
  radiative decay rate constant kR: (12.3 ± 0.2 ns)^−1 (ns)^−1
[2]
  ΦF in the solid-state (powder): 0.030±0.005
[3]
  Quantum Yield (ΦF): 0.28
Solubility (qualitative)
  solubility in polar organic solvents: readily soluble

## CCCCCCCCOc1cc(-c2ccc(F)cc2)c(OCCCCCCCC)cc1-c1ccc(F)cc1 [Dye 1]
[1]
  rate constant k1 from TA data: (5.4 ± 0.6 ps)^−1 (ps)^−1
  rate constant k2 from TA data: (83 ± 7 ps)^−1 (ps)^−1
  rate constant k3 from TA data: (3.38 ± 0.03 ns)^−1 (ns)^−1
  rate constant k4 from TA data: (155 ± 3 ns)^−1 (ns)^−1
  non-radiative decay rate constant kNR: (3.89 ± 0.02 ns)^−1 (ns)^−1
[3]
  Quantum Yield (ΦF): 0.13
[4]
  UV absorption band centre: 316 nm
  emission λem: 380 nm

## CCCCCCCCOc1cc(-c2ccc(C(F)(F)F)cc2)c(OCCCCCCCC)cc1-c1ccc(C(F)(F)F)cc1 [Dye 2]
[1]
  rate constant k1 from TA data: (1.4 ± 0.3 ps)^−1 (ps)^−1
  rate constant k2 from TA data: (85 ± 2 ps)^−1 (ps)^−1
  rate constant k3 from TA data: (3.16 ± 0.01 ns)^−1 (ns)^−1
  rate constant k4 from TA data: (150 ± 2 ns)^−1 (ns)^−1
  non-radiative decay rate constant kNR: (7.2 ± 0.1 ns)^−1 (ns)^−1
  radiative decay rate constant kR: (5.64 ± 0.05 ns)^−1 (ns)^−1
[3]
  Quantum Yield (ΦF): 0.56

## CCCCCCCCOc1cc(-c2ccc(C#N)cc2)c(OCCCCCCCC)cc1-c1ccc(C#N)cc1 [Dye 3]
[1]
  rate constant k1 from TA data: (0.8 ± 0.3 ps)^−1 (ps)^−1
  rate constant k2 from TA data: (99 ± 2 ps)^−1 (ps)^−1
  rate constant k3 from TA data: (4.23 ± 0.02 ns)^−1 (ns)^−1
  rate constant k4 from TA data: (314 ± 1 ns)^−1 (ns)^−1
  non-radiative decay rate constant kNR: (22.3 ± 0.6 ns)^−1 (ns)^−1
  radiative decay rate constant kR: (5.22 ± 0.03 ns)^−1 (ns)^−1
[3]
  Quantum Yield (ΦF): 0.81

## CCCCCCCCOc1cc(-c2ccc(C(=O)OC)cc2)c(OCCCCCCCC)cc1-c1ccc(C(=O)OC)cc1 [Dye 4]
[1]
  rate constant k1 from TA data: (0.7 ± 0.3 ps)^−1 (ps)^−1
  rate constant k2 from TA data: (132 ± 7 ps)^−1 (ps)^−1
  rate constant k3 from TA data: (3.80 ± 0.01 ns)^−1 (ns)^−1
  rate constant k4 from TA data: (210 ± 2 ns)^−1 (ns)^−1
  non-radiative decay rate constant kNR: (17.3 ± 0.4 ns)^−1 (ns)^−1
[3]
  Quantum Yield (ΦF): 0.78

## CCCCCCCCOc1cc(-c2ccc([N+](=O)[O-])cc2)c(OCCCCCCCC)cc1-c1ccc([N+](=O)[O-])cc1 [Dye 5]
[1]
  rate constant k1 from TA data: (4.3 ± 0.3 ps)^−1 (ps)^−1
  rate constant k2 from TA data: (28 ± 2 ps)^−1 (ps)^−1
  rate constant k3 from TA data: (102.7 ± 0.3 ns)^−1 (ns)^−1
  radiative decay rate constant kR: <(0.9 ns)^−1 (ns)^−1
[1]; excited at 350 nm
  CT state decay back to the ground state: 102 ns
  initially excited state (S1) decay time: 4.3±0.3 ps
[1]; kobs = k1
  non-radiative decay rate constant kNR: >(4 ps)^−1 (ps)^−1
[5]; deaerated solution
  triplet state lifetime (diffusional quenching-limited): 1 µs
[5]; excited at 350 nm
  CT state decay to triplet state: 18 ns
  S1 state decay time: 7.9±0.3 ps
[3]
  Quantum Yield (ΦF): <0.005

## COc1cc(-c2ccncc2)c(OC)cc1-c1ccncc1 [Dye 6]
[1]
  rate constant k1 from TA data: (0.6 ± 0.3 ps)^−1 (ps)^−1
  rate constant k2 from TA data: (52 ± 1 ps)^−1 (ps)^−1
  rate constant k3 from TA data: (4.05 ± 0.02 ns)^−1 (ns)^−1
  rate constant k4 from TA data: (163 ± 2 ns)^−1 (ns)^−1
  non-radiative decay rate constant kNR: (11.0 ± 0.2 ns)^−1 (ns)^−1
  radiative decay rate constant kR: (6.43 ± 0.05 ns)^−1 (ns)^−1
[3]
  Quantum Yield (ΦF): 0.63

Reference: patent US20250085201A1, “SUBSTITUTED QUADRUPOLAR FLUORESCENT DYES FOR LIVE CELL IMAGING” (Northwestern University, priority 2023, published 2025)
